{"source": "patent EP3415164A1", "about": "“COMPOSITION COMPRISING A SPECIFIC P38A INHIBITOR AND AN AGENT THAT INDUCES CHROMOSOME INSTABILITY AND MEDICAL USES THEREOF” (Fundació Institut de Recerca Biomèdica (IRB Barcelona), priority 2017, dated 2018)", "key": {"[1]": {"system": "breast tumour patient-derived xenografts (PDXs)", "assay": "Breast tumour patient-derived xenografts (PDXs) treated with taxanes and PH797804", "type": "in vivo"}, "[2]": {"system": "PyMT-induced mammary tumours", "assay": "Growth, DNA damage and mitotic figures of PyMT-induced mammary tumours in treated mice", "type": "in vivo", "conditions": "for effect on tumour growth: taxane administered alone, 20 mg/kg once a week for three weeks", "protocol": "Mouse experiments. PyMT p38αlox/lox UbCre female mice were generated by crossing p38αlox/lox mice (Ventura et al., 2007) with MMTV-PyMT, provided by William Muller (McGill University, Canada) and UbiquitinC-Cre-ERT2 mice (Ruzankina et al., 2007), being all mostly in FVB background. Mouse genotyping was performed by PCR using genomic tail DNA. Primers and conditions are available upon request. Mice were housed according to national and European Union regulations, and protocols were approved by the animal care and use committee of the Barcelona Science Park (PCB-CEEA). […] For p38α deletion, 4OHT (Sigma, H6278) was dissolved in 10% ethanol/90% corn oil (Sigma, C8267) and mice were injected intraperitoneally with 1 mg each day for five consecutive days. For chemotherapeutic treatments, mice were injected once a week with 20 mg/kg of docetaxel (Accord, 691719.0) or 20 mg/kg paclitaxel (Accord, 676253.0), for three consecutive weeks. […] Histology and immunohistochemistry. Tumours dissected from mice were fixed overnight in 10%-buffered formalin (Sigma, HT501128) and embedded in paraffin. Sections (5 µm-thick) were stained with hematoxylin and eosin (H&E). Specific antibodies were used for the following stainings: Ki67 (Novacastra, NCL), phospho-H3 (Millipore, 06-570), γ-H2AX (Millipore, 05-636). […] Apoptosis was detected by TUNEL using the \"In situ Cell Death Detection Kit, Fluorescein\" (Roche, 11684795910), following the manufacturer's instructions."}, "[3]": {"conditions": "combination therapy versus single treatments, around day 15, responding PDXs (TN1, TN2, Lum1, Lum2)"}, "[4]": {"conditions": "PH797804 in combination with paclitaxel or docetaxel"}}, "data": [{"smiles": "CNC(=O)c1ccc(C)c(-n2c(C)cc(OCc3ccc(F)cc3F)c(Br)c2=O)c1", "note": "[PH797804]", "values": [{"measurement": "aneuploidy (FISH, chromosome 17 centromeric probe)", "setting": "[1]; PH797804 with paclitaxel versus paclitaxel", "value": "usually enhanced the aneuploidy induced by paclitaxel"}, {"measurement": "detrimental outcome induced by p38α inhibition", "setting": "[1]; all nine PDXs", "value": "never observed increased tumour growth or any other detrimental outcome"}, {"measurement": "anti-tumour response", "setting": "[1]; co-administration with paclitaxel or docetaxel versus taxane alone, most cases (seven of nine PDXs)", "value": "enhanced, accelerated or prolonged the anti-tumour response observed with the taxane alone"}, {"measurement": "anti-tumour response", "setting": "[1]; co-administration with taxane, PDX models TN5 and Lum4", "value": "no additional benefit was observed"}, {"measurement": "missegregation events", "setting": "[1]; [3]", "value": "increased percentage of missegregation events"}, {"measurement": "γ-H2AX staining", "setting": "[1]; [3]", "value": "increased γ-H2AX staining"}, {"measurement": "effect on tumour growth", "setting": "[1]; p38α inhibition (PH797804) alone, 15 mg/kg daily oral, most PDX models", "value": "mild effect on tumour growth"}, {"measurement": "tumour size", "setting": "[2]; PH797804 15 mg/kg daily by oral gavage in combination with paclitaxel or docetaxel", "value": "substantial reduction of tumour size"}, {"measurement": "DNA damage (γ-H2AX staining)", "setting": "[2]; [4]", "value": "increased levels of DNA damage"}, {"measurement": "missegregation events (phospho-H3 staining)", "setting": "[2]; [4]", "value": "higher number of missegregation events"}]}, {"smiles": "CC(=O)O[C@@]12CO[C@@H]1C[C@H](O)[C@@]1(C)C(=O)[C@H](O)C3=C(C)[C@@H](OC(=O)[C@H](O)[C@@H](NC(=O)OC(C)(C)C)c4ccccc4)C[C@@](O)([C@@H](OC(=O)c4ccccc4)[C@H]21)C3(C)C", "note": "[docetaxel]", "values": [{"measurement": "effect on tumour growth", "setting": "[2]", "value": "only exerted a cytostatic effect on tumour growth"}]}, {"smiles": "CC(=O)O[C@H]1C(=O)[C@@]2(C)[C@H]([C@H](OC(=O)c3ccccc3)[C@]3(O)C[C@H](OC(=O)[C@H](O)[C@@H](NC(=O)c4ccccc4)c4ccccc4)C(C)=C1C3(C)C)[C@]1(OC(C)=O)CO[C@@H]1C[C@@H]2O", "note": "[paclitaxel]", "values": [{"measurement": "effect on tumour growth", "setting": "[2]", "value": "only exerted a cytostatic effect on tumour growth"}]}]}
